The values below come from US11850266B2, “Cardiomyocytes and compositions and methods for producing the same” (President and Fellows of Harvard College, priority 2019, dated 2023).

SMILES strings stand for the structures.

What all share (format): cell-based, human
In assay [1] the test system is iPSC-derived cardiomyocytes. Kind of assay: Muscular thin film (MTF) contractile force. As to conditions: Torin1 200 nM 7 days, MTFs, FIG. 2F. As for the experimental part: Gelatin muscular thin films (MTFs) were prepared as previously described (32). Square 22×22 mm glass coverslips were covered with low adhesive tape (Patco 5560 Removable Protective Film Tape), and an Epilog Mini 24 laser engraving instrument was used to cut the tape such that two inner rectangles (3×10 mm for cantilever region and 7×10 mm for base region) were surrounded by an outer border. The larger inner rectangle was peeled away and this region was activated with 0.1 M NaOH for 5 minutes, then 0.5% (3-aminopropyl)triethoxysilane (APTES) in 95% ethanol for 5 minutes, then 0.5% glutaraldehyde solution for 30 minutes. The glass coverslips were then rinsed and dried. Next, the tape covering the smaller inner rectangle region was peeled away. A 20% w/v stock gelatin (175 g bloom, Type A, Sigma) in distilled water solution was dissolved at 65° C. for 30 minutes and an 8% w/v stock microbial transglutaminase (MTG) (Ajinomoto) in distilled water solution was dissolved at 37° C. for 30 minutes. […] The radius of curvature for each MTF was quantified using ImageJ. Thickness of the MTF was determined using a Zeiss LSM confocal microscope. […] The maximum and average systolic, diastolic, and twitch (systolic—diastolic stress) stresses were calculated for each MTF.

The subject of assay [2] is iPSC-derived cardiomyocytes. Kind of assay: Calcium transients (Fluo-4 AM) analysis with Vala Kinetic Image Cytometer. As to conditions: Torin1 treatment, FIG. 14. As for the experimental part: To perform calcium transients analysis, 50 ul of 10 ug/ml Hoeschst 33258 and 5 μM Fluo-4 AM was added to each well of a 96 well plate and incubated for 10 minutes at 37 degrees. Media was replaced with RPMI without phenol red supplemented with 1:100 Oxyfluor and 10 uM sodium lactate. Isoproterenol (1 μM) was added to the media for isoproterenol experiments. Pacing protocol was 5 seconds delay without pacing followed by 5 seconds pacing at 1 Hz and 5 seconds imaging without pacing. Imaging was performed using the Vala Kinetic Image Cytometer at 30 fps with 33.30 ms exposure at 14.25 intensity. Stimulation pulse was 5 ms with 15V voltage. Data was collected by CyteSeer analysis program.

Assay [3] has as its system iPSC-derived cardiomyocytes. Kind of assay: Imaging quantification of proliferating cardiomyocytes (Ki67, phospho-histone H3). As to conditions: versus control, non-dissociated cells, FIG. 8. The text has this: Cardiomyocytes were differentiated in 12 well plates then fixed and stained in the original plates to minimize potential for selection of cells that survive dissociation. Cells were stained with Ki67/TNNT2/DAPI or phospho-H3/TNNT2/DAPI as described in Immunostaining methods. Images were acquired with a fluorescent microscope. Monolayer regions containing TNNT2+ cells were randomly selected from 5 fields of view in the plate with a 10× objective. The particle analysis feature of ImageJ was used to quantify the number of cells per field of view that were positive for DAPI, Ki67, or pH3. To control for variability across samples, a signal threshold of <500 was set DAPI and pH3 (488 nm) channels and a signal threshold of <600 was set for Ki67 ([…]). Particle sizes between 10-1000 pixels^2 were included in the analysis. The percentage of Ki67+ cells or pH3+ cells out of the total number of cells marked by DAPI and TNNT2 was quantified. A chi-squared test was used to evaluate for statistical significance.

Turning to `CCC(=O)N1CCN(c2ccc(-n3c(=O)ccc4cnc5ccc(-c6cnc7ccccc7c6)cc5c43)cc2C(F)(F)F)CC1` [Torin1], the “relative maximum systolic force versus control” value in assay [1] is ~2 fold. In addition, in assay [2], the “calcium peak rise time, peak decay time and FWHM time” value is “significant decreases”. Moreover, in assay [3], the “percentage of Ki67+ cardiomyocytes” value is listed as “significantly decreased” and the “percentage of pH3+ cardiomyocytes” value is recorded as “did not change”.
